Patent publication US9708314B2, “Heterocyclic amide compound” (NISSAN CHEMICAL INDUSTRIES, LTD., priority 2013, dated 2017)

Columns and labels:
Format in all cases: in vivo
Cyperus difformis = test: Test Example 3: herbicidal effect by application to foliage (Wagner pot, water depth 0.1-0.5 cm); conditions: Nineteenth Table; application to foliage; application herbicide amount 320 g/ha
Outline: (§1)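 Post-emergence foliar application at a stated g/ha rate to plants grown 14 days from seed in alluvial soil, greenhouse 25–30 °C. Visual score after 3 weeks: 0 (≤5% effect) through 5 (≥90%).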

Monochoria vaginalis [1] = test: Test Example 1: herbicidal activity, application before weed generation in submerged conditions; conditions: Seventeenth Table; for C (Monochoria vaginalis) herbicidal ratio grade: application herbicide amount 320 g/ha; for C: Monochoria vaginalis (herbicidal effect grade): Application herbicide amount 320 g/ha
Outline: (§2)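 Pre-emergence water-surface application under 4 cm flooding, same day as sowing, with rice transplanted at 2.5 leaf stage. Dose given as g/ha. Plants grown at 25° C. to 30° C. and rated three weeks later on a 0 (≤5%) to 5 (≥90%) herbicidal-ratio scale.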

Scirpus juncoides [2] = test: as above; conditions: Seventeenth Table; for B (Scirpus juncoides) herbicidal ratio grade: application herbicide amount 320 g/ha; for B: Scirpus juncoides (herbicidal effect grade): Application herbicide amount 320 g/ha
Outline: as §2

[3] = test system: transplanted Oryza sativa; test: Test Example 1: effect on crop, application before weed generation in submerged conditions; conditions: Seventeenth Table; for a (transplanted Oryza sativa) effect on crop grade: application herbicide amount 320 g/ha; for a: transplanted Oryza sativa (effect on crop grade): Application herbicide amount 320 g/ha
Outline: as §2

Scirpus juncoides [4] = test: Test Example 2: herbicidal activity, application during weed generation in submerged conditions; conditions: Eighteenth Table; application herbicide amount 320 g/ha
Outline: (§3)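 Scored three weeks post-application on a 0–5 scale (5: ≥90% herbicidal ratio, almost withered; 0: ≤5%). Plants raised from mixed-sown seed in submerged alluvial soil (4 cm water), 25–30 °C greenhouse; water-diluted emulsion applied onto water surface at one- to two-leaf stage, dose in g/ha.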

[5] = test system: Echinochloa oryzacola Vasing.; test: as above; conditions: Eighteenth Table; application herbicide amount 320 g/ha
Outline: as §3

[6] = test system: directly sowed Oryza sativa; test: Test Example 3: effect on crop by application to foliage (Wagner pot, water depth 0.1-0.5 cm); conditions: Nineteenth Table; application to foliage; application herbicide amount 320 g/ha
Outline: as §1

Monochoria vaginalis [7] = test: Test Example 2: herbicidal activity, application during weed generation in submerged conditions; conditions: Eighteenth Table; application herbicide amount 320 g/ha
Outline: as §3

| Structure (SMILES) | E (herbicidal effect grade) (Cyperus difformis) | C (Monochoria vaginalis) herbicidal ratio grade (Monochoria vaginalis [1]) | B (Scirpus juncoides) herbicidal ratio grade (Scirpus juncoides [2]) | a (transplanted Oryza sativa) effect on crop grade [3] | C: Monochoria vaginalis (herbicidal effect grade) (Monochoria vaginalis [1]) | B: Scirpus juncoides (herbicidal effect grade) (Scirpus juncoides [2]) | B (Scirpus juncoides) herbicidal ratio grade (Scirpus juncoides [4]) | A (Echinochloa oryzicola Vasing.) herbicidal ratio grade [5] | a: transplanted Oryza sativa (effect on crop grade) [3] | b (effect on crop grade) [6] | C (Monochoria vaginalis) herbicidal ratio grade (Monochoria vaginalis [7]) |
| --- | --- | --- | --- | --- | --- | --- | --- | --- | --- | --- | --- |
| CCSc1nnc2c(C(=O)Nc3ncnn3C)ccc(C(F)(F)F)n12 [4-003] | 0 (Herbicidal ratio of 5% or less (almost no effect)) | 0 (Herbicidal ratio of 5% or less (almost no effect)) | 2 (Herbicidal ratio of 20% or more and less than 40%) | 0 (Herbicidal ratio of 5% or less (almost no effect)) | – | – | – | – | – | – | – |
| C=CCN(C)c1nnc2c(C(=O)Nc3nnc(C)o3)ccc(C(F)(F)F)n12 [1-166] | – | – | – | – | 2 (Herbicidal ratio of 20% or more and less than 40%) | 3 (Herbicidal ratio of 40% or more and less than 70%) | 3 (Herbicidal ratio of 40% or more and less than 70%) | 2 (Herbicidal ratio of 20% or more and less than 40%) | 0 (Herbicidal ratio of 5% or less (almost no effect)) | 2 (Herbicidal ratio of 20% or more and less than 40%) | – |
| C=CCc1nnc2c(C(=O)Nc3nnco3)ccc(C(F)(F)F)n12 [1-158] | 4 (Herbicidal ratio of 70% or more and less than 90%) | – | – | – | 0 (Herbicidal ratio of 5% or less (almost no effect)) | 4 (Herbicidal ratio of 70% or more and less than 90%) | 3 (Herbicidal ratio of 40% or more and less than 70%) | 2 (Herbicidal ratio of 20% or more and less than 40%) | 0 (Herbicidal ratio of 5% or less (almost no effect)) | – | 0 (Herbicidal ratio of 5% or less (almost no effect)) |
| C#CCN(C)c1nnc2c(C(=O)Nc3nnco3)ccc(C(F)(F)F)n12 [1-163] | 4 (Herbicidal ratio of 70% or more and less than 90%) | – | – | – | 4 (Herbicidal ratio of 70% or more and less than 90%) | 4 (Herbicidal ratio of 70% or more and less than 90%) | – | 4 (Herbicidal ratio of 70% or more and less than 90%) | 2 (Herbicidal ratio of 20% or more and less than 40%) | – | – |
| COCCc1nnc2c(C(=O)Nc3nnc(C)o3)ccc(C(F)(F)F)n12 [1-173] | – | – | – | – | – | – | 2 (Herbicidal ratio of 20% or more and less than 40%) | 3 (Herbicidal ratio of 40% or more and less than 70%) | – | 2 (Herbicidal ratio of 20% or more and less than 40%) | 2 (Herbicidal ratio of 20% or more and less than 40%) |
| Cn1nnnc1NC(=O)c1ccc(C(F)(F)F)n2c(SCc3ccc(Cl)nc3)nnc12 [2-097] | 4 (Herbicidal ratio of 70% or more and less than 90%) | – | – | – | 3 (Herbicidal ratio of 40% or more and less than 70%) | 4 (Herbicidal ratio of 70% or more and less than 90%) | 2 (Herbicidal ratio of 20% or more and less than 40%) | 0 (Herbicidal ratio of 5% or less (almost no effect)) | 1 (Herbicidal ratio of 5% or more and less than 20%) | – | 2 (Herbicidal ratio of 20% or more and less than 40%) |
| Cc1nnc(NC(=O)c2ccc(C(F)(F)F)n3c(CC(F)(F)F)nnc23)o1 [1-162] | 2 (Herbicidal ratio of 20% or more and less than 40%) | – | – | – | 0 (Herbicidal ratio of 5% or less (almost no effect)) | 2 (Herbicidal ratio of 20% or more and less than 40%) | 1 (Herbicidal ratio of 5% or more and less than 20%) | 3 (Herbicidal ratio of 40% or more and less than 70%) | 0 (Herbicidal ratio of 5% or less (almost no effect)) | – | 0 (Herbicidal ratio of 5% or less (almost no effect)) |
| Cc1nnc(NC(=O)c2ccc(C(F)(F)F)n3c(CC(=O)NC(C)C)nnc23)o1 [1-061] | 3 (Herbicidal ratio of 40% or more and less than 70%) | – | – | – | – | – | 1 (Herbicidal ratio of 5% or more and less than 20%) | 0 (Herbicidal ratio of 5% or less (almost no effect)) | – | 1 (Herbicidal ratio of 5% or more and less than 20%) | 1 (Herbicidal ratio of 5% or more and less than 20%) |
| Cc1nnc(NC(=O)c2ccc(C(F)(F)F)n3c(CC#N)nnc23)o1 [1-168] | – | – | – | – | – | – | 2 (Herbicidal ratio of 20% or more and less than 40%) | 2 (Herbicidal ratio of 20% or more and less than 40%) | – | 3 (Herbicidal ratio of 40% or more and less than 70%) | – |
| Cn1nnnc1NC(=O)c1ccc(C(F)(F)F)n2c(SC3CCCC3)nnc12 [2-096] | 5 (Herbicidal ratio of 90% or more (almost completely withered)) | – | – | – | 4 (Herbicidal ratio of 70% or more and less than 90%) | 5 (Herbicidal ratio of 90% or more (almost completely withered)) | 3 (Herbicidal ratio of 40% or more and less than 70%) | 3 (Herbicidal ratio of 40% or more and less than 70%) | 3 (Herbicidal ratio of 40% or more and less than 70%) | – | 3 (Herbicidal ratio of 40% or more and less than 70%) |
| CN(CCC#N)c1nnc2c(C(=O)Nc3nnco3)ccc(C(F)(F)F)n12 [1-164] | 4 (Herbicidal ratio of 70% or more and less than 90%) | – | – | – | 4 (Herbicidal ratio of 70% or more and less than 90%) | 5 (Herbicidal ratio of 90% or more (almost completely withered)) | 4 (Herbicidal ratio of 70% or more and less than 90%) | 4 (Herbicidal ratio of 70% or more and less than 90%) | 3 (Herbicidal ratio of 40% or more and less than 70%) | – | 4 (Herbicidal ratio of 70% or more and less than 90%) |
| CCSc1nnc2c(C(=O)Nc3nnnn3CCOC)ccc(C(F)(F)F)n12 [2-098] | 5 (Herbicidal ratio of 90% or more (almost completely withered)) | 4 (Herbicidal ratio of 70% or more and less than 90%) | 5 (Herbicidal ratio of 90% or more (almost completely withered)) | 2 (Herbicidal ratio of 20% or more and less than 40%) | – | – | 4 (Herbicidal ratio of 70% or more and less than 90%) | 5 (Herbicidal ratio of 90% or more (almost completely withered)) | – | – | 3 (Herbicidal ratio of 40% or more and less than 70%) |
